# Data: patent US9611277B2 (Janssen Pharmaceutica NV, priority 2013, dated 2017)
# pKi: −log10 of the molar value. Where two headings read alike, the source gives them in different places.
# Assays:
# rat orexin 1 receptor = rat orexin 1 receptor (Rattus norvegicus, UniProt P56718); experiment: Rat orexin 1 receptor radioligand binding; conditions: read-out: rOX1 Ki
# How it was run: (§1)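 Competition binding with the tritiated thiazolyl-pyrrolidinyl-methanone radioligand in PBS on homogenized rat or human OX1R-expressing cell suspensions, ≤0.1% DMSO; nonspecific binding defined with 10 μM almorexant. Bound radioactivity read by scintillation after filtration; IC50 from one-site competition fit, converted to Ki using pre-determined radioligand Kd.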
# human orexin 2 receptor = human orexin 2 receptor (Homo sapiens (Human), UniProt O43614); experiment: Human orexin 2 receptor radioligand binding; conditions: read-out: hOX2 Ki
# human orexin 2 receptor, sequence (O43614 whole entry): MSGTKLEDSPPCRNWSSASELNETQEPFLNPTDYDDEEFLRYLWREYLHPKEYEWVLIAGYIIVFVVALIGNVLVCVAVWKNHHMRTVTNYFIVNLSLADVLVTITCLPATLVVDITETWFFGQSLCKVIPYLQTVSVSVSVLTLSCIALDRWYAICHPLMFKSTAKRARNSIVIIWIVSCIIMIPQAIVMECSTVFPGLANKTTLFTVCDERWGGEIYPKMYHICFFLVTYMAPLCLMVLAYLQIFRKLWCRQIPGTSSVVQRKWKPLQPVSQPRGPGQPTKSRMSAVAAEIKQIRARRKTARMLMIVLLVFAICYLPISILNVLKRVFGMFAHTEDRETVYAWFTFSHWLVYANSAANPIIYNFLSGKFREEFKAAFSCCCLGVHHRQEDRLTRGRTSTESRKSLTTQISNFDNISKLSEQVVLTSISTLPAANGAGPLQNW
# How it was run: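 HEK293 cells stably expressing human OX2 receptor, homogenized, incubated with [3H]-EMPA and compounds (DMSO ≤0.1%); nonspecific binding with 10 μM almorexant. Filter-bound radioactivity counted by scintillation; IC50 from one-site competition fit of triplicates, Ki from IC50 and predetermined radioligand Kd, averaged over 2-20 runs.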
# human orexin 1 receptor = human orexin 1 receptor (Homo sapiens, UniProt O43613); experiment: Human orexin 1 receptor radioligand binding; conditions: read-out: hOX1 Ki
# How it was run: as §1
# [1] = rat orexin 1 receptor, averages of 2-20 runs
# [2] = human orexin 2 receptor, averages of 2-20 runs
# [3] = human orexin 1 receptor, averages of 2-20 runs
Compound,pKi (rat orexin 1 receptor; [1]),pKi (human orexin 2 receptor; [2]),pKi (human orexin 1 receptor; [3]),pKi (rat orexin 1 receptor),pKi (human orexin 2 receptor),pKi (human orexin 1 receptor)
"Cc1ccc(-c2ncccn2)c(C(=O)N2C[C@H]3C[C@@H](Oc4ncc(Cl)cn4)[C@@H]2C3)n1 [Example 285, ((1S,4R,6R)-6-((5-chloropyrimidin-2-yl)oxy)-2-azabicyclo[2.2.1]heptan-2-yl)(6-methyl-3-(pyrimidin-2-yl)pyridin-2-yl)methanone]",6.93,5.22,6.67,,,
"O=C(c1ccccc1-n1nccn1)N1C[C@H]2C[C@@H](Oc3ccc4cccnc4n3)[C@@H]1C2 [Example 287, ((1S,4R,6R)-6-((1,8-naphthyridin-2-yl)oxy)-2-azabicyclo[2.2.1]heptan-2-yl)(2-(2H-1,2,3-triazol-2-yl)phenyl)methanone]",6.81,5.57,6.65,,,
"Cc1cnc(C(=O)N2C[C@H]3C[C@@H](Oc4ccc(C(F)F)cn4)[C@@H]2C3)c(-c2ncccn2)c1 [Example 288, ((1S,4R,6R)-6-((5-(difluoromethyl)pyridin-2-yl)oxy)-2-azabicyclo[2.2.1]heptan-2-yl)(5-methyl-3-(pyrimidin-2-yl)pyridin-2-yl)methanone]",7.54,5.29,7.41,,,
"Cc1cnc(-c2ncccn2)c(C(=O)N2C[C@H]3C[C@@H](Oc4ccc(C(F)(F)F)cn4)[C@@H]2C3)c1 [Example 290, (5-methyl-2-(pyrimidin-2-yl)pyridin-3-yl)((1S,4R,6R)-6-((5-(trifluoromethyl)pyridin-2-yl)oxy)-2-azabicyclo[2.2.1]heptan-2-yl)methanone]",7.01,< 5.00,6.73,,,
"Cc1noc(-c2cc(F)ccc2C(=O)N2C[C@H]3C[C@@H](Oc4ccc(C(F)(F)F)cn4)[C@@H]2C3)n1 [Example 291, (4-fluoro-2-(3-methyl-1,2,4-oxadiazol-5-yl)phenyl)((1S,4R,6R)-6-((5-(trifluoromethyl)pyridin-2-yl)oxy)-2-azabicyclo[2.2.1]heptan-2-yl)methanone]",7.37,5.38,7.09,,,
"O=C(c1c(F)cccc1-c1ncco1)N1C[C@H]2C[C@@H](Oc3ccc(C(F)(F)F)cn3)[C@@H]1C2 [Example 292, (2-fluoro-6-(oxazol-2-yl)phenyl)((1S,4R,6R)-6-((5-(trifluoromethyl)pyridin-2-yl)oxy)-2-azabicyclo[2.2.1]heptan-2-yl)methanone]",7.72,6.17,7.40,,,
O=C(c1cc(F)ccc1-c1ncco1)N1C[C@H]2C[C@@H](Oc3ccc(C(F)(F)F)cn3)[C@@H]1C2 [Example 293],7.80,6.27,7.59,,,
Cc1cnc(C(=O)N2C[C@H]3C[C@@H](Oc4ccc(C(F)(F)F)cn4)[C@@H]2C3)c(-n2ccnn2)c1 [Example 294],6.78,5.85,6.24,,,
COc1ccc(C(=O)N2C[C@H]3C[C@@H](Oc4ccc(C(F)(F)F)cn4)[C@@H]2C3)c(-c2ncccn2)c1 [Example 295],7.72,5.24,7.47,,,
O=C(c1ncccc1-c1ncccn1)N1C[C@H]2C[C@@H](Oc3ccc(C(F)(F)F)cn3)[C@@H]1C2 [Example 296],8.10,6.32,7.85,,,
O=C(c1ccccc1-c1ncccn1)N1C[C@H]2C[C@@H](Oc3ccc(C(F)(F)F)cn3)[C@@H]1C2 [Example 297],8.00,6.22,8.00,,,
Cc1cnc(C(=O)N2C[C@H]3C[C@@H](Oc4ccc(C(F)(F)F)cn4)[C@@H]2C3)c(-c2ncccn2)c1 [Example 298],7.62,< 5.00,7.54,,,
O=C(c1ccccc1-n1nccn1)N1C[C@H]2C[C@@H](Oc3ncc(Cl)cn3)[C@@H]1C2 [Example 300],7.04,5.43,6.95,,,
"(3-fluoro-2-(pyrimidin-2-yl)phenyl)((1S,4R,6R)-6-((5-(trifluoromethyl)pyrazin-2-yl)amino)-2-azabicyclo[2.2.2]octan-2-yl)methanone [Example 80]",8.05,6.34,8.15,,,
"((1S,4S,6R)-6-((5-chloropyrimidin-2-yl)amino)-2-azabicyclo[2.2.1]heptan-2-yl)(2-(5-fluoropyrimidin-2-yl)phenyl)methanone [Example 241]",,,,7.68,6.01,7.92
"((1S,4S,6R)-6-((5-chloropyrimidin-2-yl)amino)-2-azabicyclo[2.2.1]heptan-2-yl)(5-fluoro-2-(pyrimidin-2-yl)phenyl)methanone [Example 238]",7.70,,8.10,,6.00,
